These results are taken from patent US20170355708A1, “POTASSIUM CHANNEL MODULATORS” (Cadent Therapeutics, Inc., priority 2016, published 2017).

In the assay the target is T1, hSK2 channels (Homo sapiens, UniProt P0DP23+Q9H2S1).
T1 construct: expressed in transfected cells; host or cells: HEK293
The experiment in a line: Whole-cell patch-clamp recording of SK2 channel current (SC100). In kind it is cell-based. The settings on record: Stimulating Concentration required for increasing the baseline current by 100%; HEK293 cells expressing hSK2; Table 3. As to the method:
The biological activity of certain compounds were determined as follows. The ionic current through small-conductance Ca^2+-activated K^+ channels (SK channels, subtype 2) is recorded using the whole-cell configuration of the patch-clamp technique in a classic patch-clamp set-up using HEK293 tissue culture cells expressing hSK2 channels as described in Kasumu et. al., Chemistry & Biology 19, 1340-1353, Oct. 26, 2012.
The SC100 value determined is defined as the Stimulating Concentration required for increasing the baseline current by 100%.
As for `Cc1cc(C)n(-c2cc(NC(C)C(N)=O)nc(Nc3ccc(F)c(F)c3)n2)n1` (centres unmarked) [Compound 113, 2-((2-((3,4-difluorophenyl)amino)-6-(3,5-dimethyl-1H-pyrazol-1-yl)pyrimidin-4-yl)amino)propanamide], the “SC100 uM” value is reported as “++ (++ means 200 nM-1000 nM)”.
The result for `Cc1cc(C)n(-c2nc(Nc3ccc(Cl)cc3)cc(NC(C)C(N)=O)n2)n1` (centres unmarked) [Compound 114, 2-((6-((4-chlorophenyl)amino)-2-(3,5-dimethyl-1H-pyrazol-1-yl)pyrimidin-4-yl)amino)propanamide] reads “++ (++ means 200 nM-1000 nM)”; that for `Cc1cc(C)n(-c2nc(Nc3ccc(F)cc3F)cc(N3CCNC(C(N)=O)C3)n2)n1` (centres unmarked) [Compound 115, 4-(6-((2,4-difluorophenyl)amino)-2-(3,5-dimethyl-1H-pyrazol-1-yl)pyrimidin-4-yl)piperazine-2-carboxamide], “++ (++ means 200 nM-1000 nM)”.
The value for `Cc1cc(C)n(-c2cc(N3CCNC(C(N)=O)C3)nc(Nc3ccc(F)c(F)c3)n2)n1` (centres unmarked) [Compound 116, 4-(2-((3,4-difluorophenyl)amino)-6-(3,5-dimethyl-1H-pyrazol-1-yl)pyrimidin-4-yl)piperazine-2-carboxamide] was “+++ (+++ means <200 nM)”; that for `Cc1cc(C)n(-c2nc(Nc3ccc(F)c(F)c3)cc(N3CCOC(CO)C3)n2)n1` (centres unmarked) [Compound 117, (4-(6-((3,4-difluorophenyl)amino)-2-(3,5-dimethyl-1H-pyrazol-1-yl)pyrimidin-4-yl)morpholin-2-yl)methanol] was “+++ (+++ means <200 nM)”.
`Cc1cc(C)n(-c2nc(Nc3ccc(Cl)cc3)nc3c2ncn3C(C)C)n1` [Compound 118, N-(4-chlorophenyl)-6-(3,5-dimethyl-1H-pyrazol-1-yl)-9-isopropyl-9H-purin-2-amine]: the “SC100 uM” value is given as “+++ (+++ means <200 nM)”.
The result for `CCn1cnc2c(-n3nc(C)cc3C)nc(Nc3ccc(F)c(F)c3)cc21` [Compound 120, N-(3,4-difluorophenyl)-4-(3,5-dimethyl-1H-pyrazol-1-yl)-1-ethyl-1H-imidazo[4,5-c]pyridin-6-amine] reads “+ (+ means >1 uM)”.
The result for `Cc1cc(C)n(-c2nc(Nc3ccc(F)c(F)c3)cc(NC(C)C(N)=O)n2)n1` (centres unmarked) [Compound 126, 2-((6-((3,4-difluorophenyl)amino)-2-(3,5-dimethyl-1H-pyrazol-1-yl)pyrimidin-4-yl)amino)propanamide] reads “++ (++ means 200 nM-1000 nM)”; that for `Cc1cc(C)n(-c2nc(Nc3ccc(F)c(F)c3)cc(N3CCOC(C(N)=O)C3)n2)n1` (centres unmarked) [Compound 127, 4-(6-((3,4-difluorophenyl)amino)-2-(3,5-dimethyl-1H-pyrazol-1-yl)pyrimidin-4-yl)morpholine-2-carboxamide], “+ (+ means >1 uM)”.
The result for `Cc1cc(C)n(-c2nc(Nc3ccc(Cl)cc3)nc3c2ncn3CC#N)n1` [Compound 130, 2-(2-((4-chlorophenyl)amino)-6-(3,5-dimethyl-1H-pyrazol-1-yl)-9H-purin-9-yl)acetonitrile] reads “++ (++ means 200 nM-1000 nM)”; that for `Cc1cc(C)n(-c2nc(Nc3ccc(Cl)cc3)nc3c2ncn3CCN)n1` [Compound 133, 9-(2-aminoethyl)-N-(4-chlorophenyl)-6-(3,5-dimethyl-1H-pyrazol-1-yl)-9H-purin-2-amine], “+ (+ means >1 uM)”; that for `Cc1cc(C)n(-c2nc(Nc3ccc(F)c(F)c3)cc(NC3C4CN(Cc5ccccc5)CC43)n2)n1` (centres unmarked) [Compound 134, N4-(3-benzyl-3-azabicyclo[3.1.0]hexan-6-yl)-N6-(3,4-difluorophenyl)-2-(3,5-dimethyl-1H-pyrazol-1-yl)pyrimidine-4,6-diamine], “++ (++ means 200 nM-1000 nM)”.
Consider `Cc1cc(C)n(-c2nc(Nc3ccc(Cl)cc3)nc3c2ncn3CCO)n1` [Compound 135, 2-(2-((4-chlorophenyl)amino)-6-(3,5-dimethyl-1H-pyrazol-1-yl)-9H-purin-9-yl)ethan-1-ol], for which the “SC100 uM” value was “++ (++ means 200 nM-1000 nM)”.
The result for `Cc1cc(Nc2ccc(Cl)c(C(F)(F)F)c2)nc(-n2ccc(C)n2)n1` [Compound 136, N-(4-chloro-3-(trifluoromethyl)phenyl)-6-methyl-2-(3-methyl-1H-pyrazol-1-yl)pyrimidin-4-amine] reads “+++ (+++ means <200 nM)”; that for `Cc1cc(Nc2ccc(F)cc2)nc(-n2ccc(CO)n2)n1` [Compound 137, (1-(4-((4-fluorophenyl)amino)-6-methylpyrimidin-2-yl)-1H-pyrazol-3-yl)methanol], “+ (+ means >1 uM)”; that for `Cc1cc(Nc2ccc(F)cc2)nc(-n2ccc(C(C)(C)O)n2)n1` [Compound 138, 2-(1-(4-((4-fluorophenyl)amino)-6-methylpyrimidin-2-yl)-1H-pyrazol-3-yl)propan-2-ol], “+ (+ means >1 uM)”.
The value for `Cc1cc(Nc2ccc(F)cc2)nc(-n2ccc(C(C)O)n2)n1` (centres unmarked) [Compound 140, 1-(1-(4-((4-fluorophenyl)amino)-6-methylpyrimidin-2-yl)-1H-pyrazol-3-yl)ethan-1-ol] was “+ (+ means >1 uM)”; that for `Cc1cc(Nc2ccc(F)cc2)nc(-n2ccc(CF)n2)n1` [Compound 141, 2-(3-(fluoromethyl)-1H-pyrazol-1-yl)-N-(4-fluorophenyl)-6-methylpyrimidin-4-amine] was “++ (++ means 200 nM-1000 nM)”.
Regarding `Cc1cc(Nc2ccc(Cl)cc2)nc(-n2ccc(C(C)(C)O)n2)n1` [Compound 142, 2-(1-(4-((4-chlorophenyl)amino)-6-methylpyrimidin-2-yl)-1H-pyrazol-3-yl)propan-2-ol], the “SC100 uM” value was “++ (++ means 200 nM-1000 nM)”.
The value for `N#Cc1ccn(-c2nc(Nc3ccc(Cl)cc3)cc(N3CC4(COC4)C3)n2)n1` [Compound 143, 1-(4-((4-chlorophenyl)amino)-6-(2-oxa-6-azaspiro[3.3]heptan-6-yl)pyrimidin-2-yl)-1h-pyrazole-3-carbonitrile] was “++ (++ means 200 nM-1000 nM)”.
As to `Cc1cc(C)n(-c2cc3ccn(C)c3c(Nc3ccc(Cl)cc3)n2)n1` [Compound 144, N-(4-chlorophenyl)-5-(3,5-dimethyl-1H-pyrazol-1-yl)-1-methyl-1H-pyrrolo [2,3-c]pyridin-7-amine], the “SC100 uM” value was “+ (+ means >1 uM)”.
As for `Cc1cc(Nc2ccc(Cl)cc2)nc(-n2ccc(C(C)(C)O)n2)c1` [Compound 145, 2-(1-(6-((4-chlorophenyl)amino)-4-methylpyridin-2-yl)-1H-pyrazol-3-yl)propan-2-ol], the “SC100 uM” value was “++ (++ means 200 nM-1000 nM)”.
For `CC(O)c1ccn(-c2nc(Nc3ccc(F)cc3)cc(N3CCOCC3)n2)n1` (centres unmarked) [Compound 146, 1-(1-(4-((4-fluorophenyl)amino)-6-morpholinopyrimidin-2-yl)-1H-pyrazol-3-yl)ethan-1-ol], the “SC100 uM” value was “+ (+ means >1 uM)”.
The result for `CC(C)(O)c1ccn(-c2nc(Nc3ccc(Cl)cc3)cc(N3CC4(COC4)C3)n2)n1` [Compound 147, 2-(1-(4-((4-chlorophenyl)amino)-6-(2-oxa-6-azaspiro [3.3]heptan-6-yl)pyrimidin-2-yl)-1H-pyrazol-3-yl)propan-2-ol] reads “++ (++ means 200 nM-1000 nM)”; that for `CC(C)(O)c1ccn(-c2nc(Nc3ccc(F)cc3)cc(N3CCOCC3)n2)n1` [Compound 148, 2-(1-(4-((4-fluorophenyl)amino)-6-morpholinopyrimidin-2-yl)-1H-pyrazol-3-yl)propan-2-ol], “+ (+ means >1 uM)”; that for `OCc1ccn(-c2nc(Nc3ccc(Cl)cc3)cc(N3CCOCC3)n2)n1` [Compound 149, (1-(4-((4-chlorophenyl)amino)-6-morpholinopyrimidin-2-yl)-1H-pyrazol-3-yl)methanol], “++ (++ means 200 nM-1000 nM)”.
The value for `CC(O)c1ccn(-c2nc(Nc3ccc(Cl)cc3)cc(N3CC4(COC4)C3)n2)n1` (centres unmarked) [Compound 150, 1-(1-(4-((4-chlorophenyl)amino)-6-(2-oxa-6-azaspiro[3.3]heptan-6-yl)pyrimidin-2-yl)-1H-pyrazol-3-yl)ethan-1-ol] was “++ (++ means 200 nM-1000 nM)”.
The result for `FCc1ccn(-c2nc(Nc3ccc(Cl)cc3)cc(N3CCOCC3)n2)n1` [Compound 151, N-(4-chlorophenyl)-2-(3-(fluoromethyl)-1H-pyrazol-1-yl)-6-morpholinopyrimidin-4-amine] reads “++ (++ means 200 nM-1000 nM)”; that for `CC(F)c1ccn(-c2nc(Nc3ccc(Cl)cc3)cc(N3CC4(COC4)C3)n2)n1` (centres unmarked) [Compound 152, N-(4-chlorophenyl)-2-(3-(1-fluoroethyl)-1H-pyrazol-1-yl)-6-(2-oxa-6-azaspiro[3.3]heptan-6-yl)pyrimidin-4-amine], “+++ (+++ means <200 nM)”.
With `CC(O)c1ccn(-c2nc(Nc3ccc(F)cc3)cc(N3CC4(COC4)C3)n2)n1` (centres unmarked) [Compound 153, 1-(1-(4-((4-fluorophenyl)amino)-6-(2-oxa-6-azaspiro[3.3]heptan-6-yl)pyrimidin-2-yl)-1H-pyrazol-3-yl)ethan-1-ol], the “SC100 uM” value is “+ (+ means >1 uM)”.
The result for `FC(F)c1ccn(-c2nc(Nc3ccc(Cl)cc3)cc(N3CCOCC3)n2)n1` [Compound 154, N-(4-chlorophenyl)-2-(3-(difluoromethyl)-1H-pyrazol-1-yl)-6-morpholinopyrimidin-4-amine] reads “++ (++ means 200 nM-1000 nM)”.
The value for `CC(C)(O)c1ccn(-c2nc(Nc3ccc(F)cc3)cc(N3CC4(COC4)C3)n2)n1` [Compound 155, 2-(1-(4-((4-fluorophenyl)amino)-6-(2-oxa-6-azaspiro[3.3]heptan-6-yl)pyrimidin-2-yl)-1H-pyrazol-3-yl)propan-2-ol] was “+ (+ means >1 uM)”.
